Experimental data from patent publication US20160375127A1, “Method of producing an inactivated lentivirus, especially HIV, vaccine, kit and method of use” (LABORATOIRE BIODIM, priority 2013, published 2016).
Entries after “also recorded” stand apart in the source; their conditions may differ.

Columns and labels:
HIV-1 LAV [1] = test: Infectivity of virions from treated HeLa-LAV cells on TZM indicator cells, luciferase assay; assay type: cell-based
From the text: (§1) In order to examine the infectivity of viruses produced in the presence of these various compounds, the supernatants were harvested, titrated for viral protein p24 release using the Alliance HIV-1 p24 Antigen ELISA (PerkinElmer, http://www.perkinelmer.com/) and titrated to measure the quantity of infectious particles per ml by infecting TZM-bl indicator cells (from the AIDS reagent program, NIH) expressing luciferase under a Tat-dependent promoter. Alternatively for titration of infectious particles, target cells for HIV-1 infection such as MT4 cells were used.
as §1, with “2—Production of Viral particles in the presence of compounds. […] In” for “In”, “are” for “were”, “harvested, stored at −80° C. and” for “harvested,”, “cells” for “cells (from the AIDS reagent program, NIH)”, “are used as described above in 1a.” for “were used.”

HIV-1 Gag = test: Western blot of Gag maturation and CA p24 content in producer cell lysates and virions, anti-p24 antibody; assay type: cell-based; settings: HeLa-LAV cell lysates and defective virions
HIV-1 LAV [2] = test: p24 titration of virus harvested from treated HeLa-LAV producer cells; assay type: cell-based; settings: HeLa-LAV cells treated during virus production
From the text: as §1
as §1, with “2—Production of Viral particles in the presence of compounds. […] In” for “In”, “are” for “were”, “harvested, stored at −80° C. and” for “harvested,”, “cells” for “cells (from the AIDS reagent program, NIH)”, “are used as described above in 1a.” for “were used.”

HIV-1 integrase = molecular target: T1, HIV-1 integrase (Human immunodeficiency virus type 1 group M subtype B, UniProt P12497); test: Size exclusion chromatography of recombinant HIV-1 integrase on Superdex 200 PC 3.2/30; assay type: biochemical; settings: untreated IN elutes as dimer, 64 KD MW; 8 μM IN with 20 μM compound
T1 construct: Superdex 200 16/600 PG column for IN full length; made in house
Experimental: Multimerization of HIV-1 Integrase upon treatment with inactivating compounds was performed using size exclusion chromatography on a Superdex 200 PC 3.2/30 column (GE Healthcare), as described in the method section. Aldolase (158,000 MW), Conalbumin (75,000 MW), Carbonic Anhydrase (29,000 MW), and Ribonuclease A (13,700 MW) were used as protein markers for calibration.
was performed on a Superdex 200 PC 3.2/30 column (GE Healthcare) using an AKTA chromatography system (GE Healthcare) at 0.04 mL/min at room temperature. 20 μL of sample was injected on the column previously equilibrated in Integrase buffer (50 mM HEPES pH 7.5 containing 1M NaCl, 7 mM CHAPS, 5 mM MgCl2, 10% glycerol). 1 μM Compound was added to the mobile phase in order to avoid integrase-inhibitor dissociation during the separation.

HIV-1 LAV [3] = test: Infectivity of virions from treated HeLa-LAV cells on MT4 cells, cytopathic assay CellTiter-Glo; assay type: cell-based; settings: virus stock diluted up to 2000 times
From the text: as §1
(§2) Usually 1/2000 dilution of the virus stock is used to infect MT4 target cells. Productive HIV-1 infection is determined after 5 days using the CellTiter-Glo® luminescent reagent (Promega, France) to quantify MT4 cell viability. Alternatively, productive infection can be estimated by quantitation of p24 antigen as described in paragraph 2 above.

HIV-1 NL4-3 [4] = test: Infectivity of NL4-3 virus from treated transfected 293T cells on MT4 cells, CellTiter-Glo; assay type: cell-based; settings: 293T transfection, compound 48 hours, supernatant diluted 2000 times, MT4 viability
Experimental: FIG. 4: Infectivity of wt NL4-3 viruses harvested from 293T transfected cells after treatment with the indicated compounds and tested by infection of MT4 cells using the cytopathic assay CellTiter-Glo®.
2 hours after transfection indicated compounds were added during virus production for 48 hours at the indicated concentrations. […] Viruses released in cell supernatants were harvested and tested for virus production by p24 assay, and virus infectivity by infection of MT4 cells and cytophatic assay using CellTiter-Glo® (Promega) according manufacturer's instructions.
293T cells (2.2 10^6 cells) are transfected with plasmids harboring full length cloned HIV proviral DNA such as pNL4-3 or any other HIV proviral clone including autologous HIV molecular clones using DNA transfection reagent such as X-tremeGENE 9 reagent (Roche). Cells are washed 3 h later, trypsinized and diluted at 0.3 10^6 cells per ml. 5 10^5 cells in 1.6 ml fresh culture media are distributed into 6 wells plate and the volume is adjusted to 2 ml by adding 0.4 ml of media containing compounds and DMSO per well, or DMSO only as control. As reference compounds capable to fully inactivate HIV during virus production by producer cells, Protease inhibitors such as Indinavir or Saquinavir are used as additional controls. Final concentration for each compound, including reference protease inhibitor compounds, is kept equivalent to 5 times its EC50 concentration previously calculated into a multiple round assay as in (a) and DMSO is kept at 0.5% final concentration. Supernatants containing HIV virions are collected 48 h post-transfection and stored at −80° C. All Viral stocks are quantified for p24 antigen using the Alliance HIV-1 p24 Antigen ELISA (PerkinElmer, http://www.perkinelmer.com/) and titrated to measure the quantity of infectious particles per ml by infecting TZM-bl indicator cells.
as §2, with “above. Full inactivation of the virus stock by compounds is estimated by results obtained in the presence of compound compared on the one hand to DMSO alone which indicates the 100% infectious virus stock (0% inactivation), and on the other hand to Protease inhibitor treatment which indicates the 100% virus stock inactivation.” for “above.”

HIV-1 NL4-3 [5] = test: Check of inactivation: multiple-round infection assay of MT4 human cells during five days; assay type: cell-based; settings: virus produced with 1 μM compound
From the text: (§3) To do so, HIV-1 NL4-3 virus was produced upon 293T cell transfection using Opti-Mem® reagent (Life Technologies) according manufacturer's instructions. […] Cell supernatants containing virus were ultracentrifuged through sucrose cushion. Virus pellets were resuspended in cell culture medium, aliquoted and titrated for CA p24 amount using anti-p24 antibody (Innotest HIV antigen/mAB Immunogenetics/Ingen Ghent, Belgium or Alliance® HIV-I p24 ELISA kit PerkinElmer).

HIV-1 NL4-3 [6] = test: CA p24 titration of NL4-3 virus produced by 293T cells in the presence of compound; assay type: cell-based; settings: 1 μM compound in 0.5% DMSO, 48 hours; untreated virus 19.6 μg/ml
Experimental: The assay shown in FIG. 6 measures the concentration of whole virus particles (p24 ng/ml on the Y axis) captured on plates coated with various anti-HIV antibodies at three different concentrations as indicated in the X axis. […] As indicated, two different dilutions of each of these virus preparations were incubated in the antibody-coated plates with the indicated antibodies, for 1 hour. Unbound virions were removed by washing. Virions captured by the indicated antibodies were lysed and quantitated by p24 assay by ELISA (Innogenetics/Ingen, Ghent Belgium). The anti-HIV antibodies used were a neutralizing polyclonal IgG F6 Gri/Ii, an irrelevant IgG F6 Neg (negative control), two monoclonal anti-HIV Env antibodies, 2G12 (neutralizing) and 4B3 (non-neutralizing), and an irrelevant monoclonal antibody (Synagis) as negative control.
as §3

HIV-1 NL4-3 [7] = test: Western blot of NL4-3 virus lysates with anti-p24, anti-RT and anti-IN antibodies; assay type: cell-based; settings: anti-IN, versus wt virus treated with DMSO

SMILES	infectivity of viruses produced in the presence of compound (HIV-1 LAV [1])	perturbation of Gag maturation and CA p24 content (HIV-1 Gag)	amount of p24 produced (HIV-1 LAV [2]; versus DMSO)	infectivity / cytopathic effect of viruses produced in the presence of compound (HIV-1 LAV [3])	inactivation of NL4-3 virus produced in the presence of compound (HIV-1 NL4-3 [4])	further results
Cc1nc2cc(-c3cccnc3)ccc2c(-c2ccc3c(c2)CCCO3)c1C(OC(C)(C)C)C(=O)O (stereo not drawn) [MUT145212]	non-infectious	could not detect any perturbation of Gag maturation and CA p24 content	comparable to that in the presence of DMSO	totally impaired for such cytopathic effect	–	MW at which HIV-1 integrase is eluted (IN tetramer) (HIV-1 integrase): 130 KD MW
Cc1nc2c(-c3cccc(C(N)=O)c3)cccc2c(-c2ccc3c(c2)CCCO3)c1C(OC(C)(C)C)C(=O)O (stereo not drawn) [MUT145227]	non-infectious	could not detect any perturbation of Gag maturation and CA p24 content	comparable to that in the presence of DMSO	totally impaired for such cytopathic effect	–	–
Cc1nc2cc(C(N)=O)ccc2c(-c2ccc3c(c2)CCCO3)c1C(OC(C)(C)C)C(=O)O (stereo not drawn) [MUT145240]	–	–	–	–	–	MW at which HIV-1 integrase is eluted (IN tetramer) (HIV-1 integrase): 130 KD MW
Cc1nc2c(c(-c3ccc4c(c3)CCCO4)c1C(OC(C)(C)C)C(=O)O)CCCC2 (stereo not drawn) [MUT145509]	non-infectious	could not detect any perturbation of Gag maturation and CA p24 content	comparable to that in the presence of DMSO	totally impaired for such cytopathic effect	inactivated	–
Cc1sc(-c2ccncc2)c(C2=CCC(C)(C)CC2)c1[C@H](OC(C)(C)C)C(=O)O [MUT148237]	–	–	–	–	inactivated	excess of inactivated virus over untreated virus needed to infect 100,000 cells (HIV-1 NL4-3 [5]): more than 10,000 times; extent of virus inactivation (HIV-1 NL4-3 [5]): > 99.99%; amount of p24 of virus supernatant needed for infection of 50% of MT4 cells (HIV-1 NL4-3 [5]; untreated virus 0.11 pg): 5,139 pg; CA p24 titer of virus inactivated during production (HIV-1 NL4-3 [6]): 17.6 µg/mL; protein content and maturation profile of treated virus (HIV-1 NL4-3 [7]): protein content and maturation profile identical to wt virus; also recorded: exactly the same profile, with normal protein content and protein maturation than fully infectious virus
Cc1nnc(C(=O)NC(C)(C)c2nc(C(=O)NCc3ccc(F)cc3)c(O)c(=O)n2C)o1 [Raltegravir, reference compound]	comparable to viruses produced in the presence of DMSO	–	–	fully infectious	no effect	–
CC(C)(C)NC(=O)[C@@H]1C[C@@H]2CCCC[C@@H]2CN1C[C@@H](O)[C@H](Cc1ccccc1)NC(=O)[C@H](CC(N)=O)NC(=O)c1ccc2ccccc2n1 [Saquinavir, reference compound]	non infectious	–	–	totally impaired for such cytopathic effect	inactivated	amount of p24 produced (HIV-1 LAV [2]): 30%; protein content and maturation profile of treated virus (HIV-1 NL4-3 [7]): strong defect in maturation; protein content and maturation profile of treated virus (HIV-1 NL4-3 [7]; listed as saquinavir): strong defect in maturation and absence of RT and IN mature proteins
